{
  "source": "patent US20240336659A1",
  "about": "“CELL-PENETRATING PEPTIDE, ANTI-CANCER PEPTIDE, AND PHARMACEUTICAL COMPOSITION FOR PREVENTING OR TREATING CANCER, COMPRISING SAME” (ONECUREGEN CO., LTD., priority 2021, published 2024)",
  "key": {"[1]": {"tested_on": "lung normal cell line CCD39", "details": "CCD39, 30 μM and 60 μM", "procedure": "(§1) To analyze the cytotoxicity of cell therapeutic peptide fragments on normal cell lines, lung normal cell lines WI38 and CCD39 were treated with OCP9 (SEQ ID NO: 16), OCP9-VGLLIS84-7CC (SEQ ID NO: 44), OCP9-VGLLIS84-9CC (SEQ ID NO: 46) and OCP9-VGLL1S84-11CC (SEQ ID NO: 48) at 30 μM and 60 μM, respectively, and the growth degrees of the cell lines were evaluated."}, "[2]": {"tested_on": "lung normal cell line WI38", "details": "WI38, 30 μM and 60 μM", "procedure": "as §1"}, "[3]": {"tested_on": "stomach cancer cell line NUGC3", "experiment": "Cell growth inhibition (sulforhodamine B staining)", "format": "cell-based", "details": "for cancer cell growth inhibitory effect: NUGC3, 10 μM screening of Table 4 peptides; for cell permeability (as concluded from the growth inhibition screening): NUGC3, 10 μM screening; for cancer cell growth inhibitory efficacy: NUGC3, treated for each concentration", "procedure": "(§2) Specifically, in order to confirm cell growth ability, a stomach cancer cell line NUGC3 and a breast cancer cell line SK-BR-3 were each subcultured in a 96-well plate, and the next day, peptide fragments Con, 7, and CC of Table 2 were treated with 100 μM each to the cell lines. After 72 hours, the cells were immobilized with a 10% trichloroacetic acid solution, and then stained the cell with a 0.4% sulforhodamine B solution for 1 hour, washed with acetic acid, and dried. Thereafter, the dried cells were dissolved in a 10 mM Tris solution and absorbance was measured at 510 nm using an ELISA plate reader.\nIn order to compare the cancer cell growth inhibitory effects of cancer therapeutic peptides according to cell-penetrating peptides, the stomach cancer cell line NUGC3 was treated with 10 μM each of cancer therapeutic peptide fragments in Table 4, and the cancer cell growth inhibitory effects were screened in the same manner as in Example 1.\nSpecifically, in order to confirm the cancer cell inhibition enhancing effect by enhancing the cell permeability of OCP5 among the novel synthesized CPPs, a cancer therapeutic peptide fragment represented by SEQ ID NO: 6 including the existing TAT and a cancer therapeutic peptide fragment represented by SEQ ID NO: 31 including the novel synthesized OCP5 were used. The stomach cancer cell lines NUGC3 and AGS, the breast cancer cell line SK-BR-3, and the pancreatic cancer cell line Capan-1 were treated with 25 μM SEQ ID NO: 6 and 100 μM SEQ ID NO: 31 for 72 hours, respectively, and the cancer cell growth inhibitory effects were compared in the same manner as in Example 1. […] Through this, it was confirmed that the novel CPP may be applied more effectively than the existing TAT to inhibit the cancer cell growth by the anticancer peptides.\n(§3) To analyze the cancer cell growth inhibitory effect according to a length of the anticancer peptide fragment, OCP9-VGLLIS84-7 (SEQ ID NO: 43), OCP9-VGLLIS84-9CC (SEQ ID NO: 46), and OCP9-VGLLIS84-15 (SEQ ID NO: 49) were treated for each concentration to analyze the growth inhibitory effects of stomach cancer cell lines NUGC3 and NCI-N87. When stomach cancer cells were treated with cancer therapeutic peptides, the cancer cell growth inhibitory efficacy was shown in a concentration-dependent manner. In addition, it was confirmed that the growth inhibitory effect on the stomach cancer cell lines increased as the length of the anticancer peptide fragment increased (FIG. 7).\nSpecifically, the cancer cell growth inhibitory effect according to partial or entire cyclization of the anticancer peptide fragment was analyzed. The stomach cancer cell line NUGC3 was treated with a CPP fragment OCP9 (SEQ ID NO: 16), a partially cyclized sequence […] (SEQ ID NO: 33), or a sequence OCP9-VGLLIS84-7CC (SEQ ID NO: 40) including an entirely cyclized anticancer peptide at different concentrations of 1, 2.5, 5, 10, and 20 μM, respectively, and the cancer cell growth inhibitory effects were compared in the same manner as in Example 1."}, "[4]": {"tested_on": "cell line NUGC3", "experiment": "Cell permeability of FITC-conjugated peptides by FACS", "format": "cell-based", "details": "NUGC3, 1.5 or 2.5 μM FITC-conjugated peptide, 3 hours; compared to TAT", "procedure": "To quantitatively measure the cell permeability of the novel synthesized cell-penetrating peptides, 1.5 or 2.5 μM FITC-conjugated peptides were administered to the cell line NUGC3 or the normal cell line WI38, and after 3 hours, the amounts of FITC present in the cells were measured by FACS."}, "[5]": {"tested_on": "stomach cancer cell lines NUGC3", "experiment": "Mouse xenograft experiment (tumor formation)", "format": "in vivo, Balb-c/nude mouse", "details": "intraperitoneally 10 mg/kg once a day", "procedure": "A mouse xenograft experiment was performed to analyze a tumor formation inhibitory effect of cancer therapeutic peptide fragments. Specifically, 5×10^6 stomach cancer cell lines NUGC3 were transplanted by subcutaneous injection into a flank site of a 6-week-old female Balb-c/nude mouse, and after one week (average tumor size 100 mm^3), Vehicle (0.9% saline), OCP5 (SEQ ID NO: 12), OCP5-VGLL1S84-15C (SEQ ID NO: 29), or OCP5-VGLL1S84-7C (SEQ ID NO: 33) was each administered intraperitoneally at 10 mg/kg once a day. Tumor size was measured with a digital caliper at 2-day intervals from the start of drug administration, and the tumor size (tumor size (mm^3)=long axis x short axis2) was calculated. The experiment was terminated when the average tumor size of the OCP5-administered group was 1,000 mm3, and then the tumor was extracted, and the tumor weight was measured."}, "[6]": {"tested_on": "stomach cancer cell line NCI-N87", "experiment": "Cell growth inhibition (sulforhodamine B staining)", "format": "cell-based", "details": "NCI-N87, treated for each concentration", "procedure": "as §2, §3"}},
  "note": "Positions of bridges follow the written chain, without caps; N, C: chain ends. Residues, ends and D or L forms follow the SMILES beside them. No end group written: not given here.",
  "data": [
    {"molecule": "CC[C@H](C)[C@@H]1NC(=O)[C@H](CCCNC(=N)N)NC(=O)[C@H](Cc2ccccc2)NC(=O)[C@H]([C@@H](C)CC)NC(=O)[C@H]([C@@H](C)CC)NC(=O)[C@H](CO)NC(=O)[C@@H](N)CSSC[C@@H](C(=O)O)NC(=O)[C@H](CCCCN)NC(=O)[C@H]([C@@H](C)O)NC(=O)[C@H](Cc2c[nH]c3ccccc23)NC(=O)[C@@H]2CCCN2C(=O)[C@H](CO)NC(=O)[C@H](CO)NC(=O)[C@H](Cc2ccc(O)cc2)NC(=O)[C@H](CCCNC(=N)N)NC(=O)[C@H](CCCNC(=N)N)NC(=O)[C@H](CCCNC(=N)N)NC(=O)[C@H](CCCNC(=N)N)NC(=O)[C@H](CCCNC(=N)N)NC(=O)[C@H](Cc2ccccc2)NC1=O", "note": "[OCP9-VGLL1S84-7CC, CSIIFRIFRRRRR-YSSPWTKC] (HELM PEPTIDE1{C.S.I.I.F.R.I.F.R.R.R.R.R.Y.S.S.P.W.T.K.C}$PEPTIDE1,PEPTIDE1,1:R3-21:R3$$$V2.0)", "values": [
      {"measurement": "cytotoxicity (growth inhibitory or abnormal effect)", "setting": "[1]", "result": "no cytotoxicity"},
      {"measurement": "cytotoxicity (growth inhibitory or abnormal effect)", "setting": "[2]", "result": "no cytotoxicity"}
    ]},
    {"molecule": "CC[C@H](C)[C@@H]1NC(=O)[C@H](CCCNC(=N)N)NC(=O)[C@H](Cc2ccccc2)NC(=O)[C@H]([C@@H](C)CC)NC(=O)[C@H]([C@@H](C)CC)NC(=O)[C@H](CO)NC(=O)[C@@H](N)CSSC[C@@H](C(=O)O)NC(=O)[C@H](CCCCN)NC(=O)[C@H]([C@@H](C)O)NC(=O)[C@H](Cc2c[nH]c3ccccc23)NC(=O)[C@@H]2CCCN2C(=O)[C@H](CO)NC(=O)[C@H](CO)NC(=O)[C@H](Cc2ccc(O)cc2)NC(=O)[C@H](CCCNC(=N)N)NC(=O)[C@H](Cc2c[nH]c3ccccc23)NC(=O)[C@H](CCCNC(=N)N)NC(=O)[C@H](CCCNC(=N)N)NC(=O)[C@H](CCCNC(=N)N)NC(=O)[C@H](CCCNC(=N)N)NC(=O)[C@H](CCCNC(=N)N)NC(=O)[C@H](Cc2ccccc2)NC1=O", "note": "[OCP9-VGLL1S84-9CC, CSIIFRIFRRRRR-WRYSSPWTKC] (HELM PEPTIDE1{C.S.I.I.F.R.I.F.R.R.R.R.R.W.R.Y.S.S.P.W.T.K.C}$PEPTIDE1,PEPTIDE1,1:R3-23:R3$$$V2.0)", "values": [
      {"measurement": "cytotoxicity (growth inhibitory or abnormal effect)", "setting": "[1]", "result": "no cytotoxicity"},
      {"measurement": "cytotoxicity (growth inhibitory or abnormal effect)", "setting": "[2]", "result": "no cytotoxicity"}
    ]},
    {"molecule": "CC[C@H](C)[C@@H]1NC(=O)[C@H](CCCNC(=N)N)NC(=O)[C@H](Cc2ccccc2)NC(=O)[C@H]([C@@H](C)CC)NC(=O)[C@H]([C@@H](C)CC)NC(=O)[C@H](CO)NC(=O)[C@@H](N)CSSC[C@@H](C(=O)O)NC(=O)[C@H](CCCCN)NC(=O)[C@H]([C@@H](C)O)NC(=O)[C@H](Cc2c[nH]c3ccccc23)NC(=O)[C@@H]2CCCN2C(=O)[C@H](CO)NC(=O)[C@H](CO)NC(=O)[C@H](Cc2ccc(O)cc2)NC(=O)[C@H](CCCNC(=N)N)NC(=O)[C@H](Cc2c[nH]c3ccccc23)NC(=O)[C@H](CCC(N)=O)NC(=O)[C@H](CC(N)=O)NC(=O)[C@H](CCCNC(=N)N)NC(=O)[C@H](CCCNC(=N)N)NC(=O)[C@H](CCCNC(=N)N)NC(=O)[C@H](CCCNC(=N)N)NC(=O)[C@H](CCCNC(=N)N)NC(=O)[C@H](Cc2ccccc2)NC1=O", "note": "[OCP9-VGLL1S84-11CC, CSIIFRIFRRRRR-NQWRYSSPWTKC] (HELM PEPTIDE1{C.S.I.I.F.R.I.F.R.R.R.R.R.N.Q.W.R.Y.S.S.P.W.T.K.C}$PEPTIDE1,PEPTIDE1,1:R3-25:R3$$$V2.0)", "values": [
      {"measurement": "cytotoxicity (growth inhibitory or abnormal effect)", "setting": "[1]", "result": "no cytotoxicity"},
      {"measurement": "cytotoxicity (growth inhibitory or abnormal effect)", "setting": "[2]", "result": "no cytotoxicity"}
    ]},
    {"molecule": "KKKKRKVRGDSI (OCP15)", "values": [
      {"measurement": "cancer cell growth inhibitory effect", "setting": "[3]", "result": "excluding"}
    ]},
    {"molecule": "KKKKRKVSIIFIRGD (OCP16)", "values": [
      {"measurement": "cancer cell growth inhibitory effect", "setting": "[3]", "result": "excluding"}
    ]},
    {"molecule": "KKKKRKVSIIFRIF (OCP18)", "values": [
      {"measurement": "intracellular permeability (amount of FITC in the cells)", "setting": "[4]", "result": "significantly increased"}
    ]},
    {"molecule": "KKKKRKVSIRGD (OCP17)", "values": [
      {"measurement": "cancer cell growth inhibitory effect", "setting": "[3]", "result": "excluding"}
    ]},
    {"molecule": "RRRRRGDSIIF (OCP13)", "values": [
      {"measurement": "cancer cell growth inhibitory effect", "setting": "[3]", "result": "excluding"}
    ]},
    {"molecule": "RRRRRSIIFRGD (OCP12)", "values": [
      {"measurement": "cancer cell growth inhibitory effect", "setting": "[3]", "result": "excluding"}
    ]},
    {"molecule": "SIIFRIFLHLQK (OCP1)", "values": [
      {"measurement": "cell permeability (as concluded from the growth inhibition screening)", "setting": "[3]", "result": "increased"}
    ]},
    {"molecule": "SIIFRIFLHLQK-CYSSPWTKC (SIIFRIFLHLQKCYSSPWTKC; disulfide 13-21) [SEQ ID NO: 31]", "values": [
      {"measurement": "cancer cell growth inhibitory effect", "setting": "[3]", "result": "significant cancer cell growth inhibitory effect"}
    ]},
    {"molecule": "SIIFRIFLHLQKRRR (OCP5)", "values": [
      {"measurement": "effect on tumor formation compared to the vehicle group", "setting": "[5]", "result": "did not affect the tumor formation"},
      {"measurement": "intracellular permeability (amount of FITC in the cells)", "setting": "[4]", "result": "significantly increased"},
      {"measurement": "cell permeability (as concluded from the growth inhibition screening)", "setting": "[3]", "result": "increased"},
      {"measurement": "cancer cell growth inhibitory effect", "setting": "[3]", "result": "increased"}
    ]},
    {"molecule": "SIIFRIFRRRRR (OCP9)", "values": [
      {"measurement": "intracellular permeability (amount of FITC in the cells)", "setting": "[4]", "result": "significantly increased"}
    ]},
    {"molecule": "SIIFRIFRRRRR-PNQWRYSSPWTKPQP (SIIFRIFRRRRRPNQWRYSSPWTKPQP; OCP9-VGLL1S84-15) [OCP9-VGLLIS84-15]", "values": [
      {"measurement": "cancer cell growth inhibitory efficacy", "setting": "[6]", "result": "concentration-dependent"},
      {"measurement": "cancer cell growth inhibitory efficacy", "setting": "[3]", "result": "concentration-dependent"}
    ]},
    {"molecule": "SIIFRIFRRRRR-YSSPWTK (SIIFRIFRRRRRYSSPWTK; OCP9-VGLL1S84-7) [OCP9-VGLLIS84-7]", "values": [
      {"measurement": "cancer cell growth inhibitory efficacy", "setting": "[6]", "result": "concentration-dependent"},
      {"measurement": "cancer cell growth inhibitory efficacy", "setting": "[3]", "result": "concentration-dependent"}
    ]}
  ]
}
